According to patent US20250090540A1, “PI3K-ALPHA INHIBITORS AND METHODS OF USE THEREOF” (Relay Therapeutics, Inc., priority 2021, published 2025):
Read-outs that look alike come from different tables or passages of the source.

Key:
H1047R PIK3CA enzyme = H1047R PIK3CA enzyme (Homo sapiens, UniProt P42336, H1047R); experiment: ADP-Glo Biochemical PIK3CA Kinase Assay
cells = conditions: Homo sapiens, MCF-10A, read-out: MCF10A I50
[1] = ADP-Glo biochemical PIK3CA kinase assay

Chain of H1047R PIK3CA enzyme (P42336 whole entry H1047R): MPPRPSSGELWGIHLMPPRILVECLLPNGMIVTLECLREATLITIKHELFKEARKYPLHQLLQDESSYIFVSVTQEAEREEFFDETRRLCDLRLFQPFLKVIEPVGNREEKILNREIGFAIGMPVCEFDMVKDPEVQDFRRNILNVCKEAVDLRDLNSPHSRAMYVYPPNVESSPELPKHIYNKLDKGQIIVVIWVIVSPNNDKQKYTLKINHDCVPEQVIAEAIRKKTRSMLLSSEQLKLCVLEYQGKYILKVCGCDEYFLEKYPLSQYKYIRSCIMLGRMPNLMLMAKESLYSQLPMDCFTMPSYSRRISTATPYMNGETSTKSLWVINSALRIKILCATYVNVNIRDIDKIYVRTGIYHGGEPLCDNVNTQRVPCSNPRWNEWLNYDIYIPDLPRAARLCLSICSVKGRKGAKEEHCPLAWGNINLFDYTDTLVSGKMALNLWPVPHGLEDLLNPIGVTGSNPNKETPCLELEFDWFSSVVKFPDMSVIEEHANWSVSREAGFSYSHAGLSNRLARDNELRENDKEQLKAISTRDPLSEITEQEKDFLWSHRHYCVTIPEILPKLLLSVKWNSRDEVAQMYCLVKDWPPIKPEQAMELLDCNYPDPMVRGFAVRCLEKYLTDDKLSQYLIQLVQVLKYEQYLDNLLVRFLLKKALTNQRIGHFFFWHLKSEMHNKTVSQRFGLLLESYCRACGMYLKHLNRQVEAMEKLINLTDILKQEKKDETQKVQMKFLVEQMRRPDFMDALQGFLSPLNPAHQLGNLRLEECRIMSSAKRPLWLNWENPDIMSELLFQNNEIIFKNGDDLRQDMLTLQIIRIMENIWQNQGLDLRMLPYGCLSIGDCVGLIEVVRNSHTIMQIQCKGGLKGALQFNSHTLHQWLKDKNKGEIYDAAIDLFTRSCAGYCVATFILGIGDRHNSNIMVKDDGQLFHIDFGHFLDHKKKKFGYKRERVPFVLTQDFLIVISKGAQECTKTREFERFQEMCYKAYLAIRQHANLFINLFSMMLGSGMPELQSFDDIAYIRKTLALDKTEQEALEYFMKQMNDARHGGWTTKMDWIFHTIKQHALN
Chain of H1047R PIK3CA enzyme (P27986 whole entry partner): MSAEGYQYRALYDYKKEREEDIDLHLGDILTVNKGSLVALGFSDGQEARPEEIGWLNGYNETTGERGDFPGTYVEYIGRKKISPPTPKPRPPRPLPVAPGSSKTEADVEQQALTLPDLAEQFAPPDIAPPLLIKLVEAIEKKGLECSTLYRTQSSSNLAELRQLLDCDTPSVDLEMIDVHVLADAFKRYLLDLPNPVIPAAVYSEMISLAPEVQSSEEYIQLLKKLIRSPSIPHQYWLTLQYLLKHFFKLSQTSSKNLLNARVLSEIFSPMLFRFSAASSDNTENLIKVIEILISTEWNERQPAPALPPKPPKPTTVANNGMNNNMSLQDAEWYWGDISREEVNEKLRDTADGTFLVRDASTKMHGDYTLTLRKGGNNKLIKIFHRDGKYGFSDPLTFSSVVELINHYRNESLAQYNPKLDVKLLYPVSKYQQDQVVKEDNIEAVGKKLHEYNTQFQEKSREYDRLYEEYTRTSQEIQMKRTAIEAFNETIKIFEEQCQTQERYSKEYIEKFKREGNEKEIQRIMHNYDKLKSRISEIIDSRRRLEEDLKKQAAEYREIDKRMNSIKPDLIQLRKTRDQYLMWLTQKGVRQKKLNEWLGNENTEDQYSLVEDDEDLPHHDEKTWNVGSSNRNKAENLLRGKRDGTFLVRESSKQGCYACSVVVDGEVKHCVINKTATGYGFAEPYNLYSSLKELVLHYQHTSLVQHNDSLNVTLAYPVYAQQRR

Row | SMILES | IC50 (H1047R PIK3CA enzyme; [1]) [nM] | IC50 (cells) [nM] | IC50 (H1047R PIK3CA enzyme) [nM]
1 | Cc1ccccc1Nc1ncc(C(=O)N2CC(O)C2)cc1NC(=O)c1csc2ccccc12 [I-613] | 100 to 500 | 10000 to 36000 | 
2 | Cc1ccccc1Nc1ncc(C(=O)NC(C)c2nnc3ccccn23)cc1NC(=O)c1csc2ccccc12 (stereo not shown) [I-616] | ≤ 100 | 1000 to 5000 | 
3 | Cc1ccccc1Nc1ncc(C(=O)N[C@H]2COC[C@@H]2O)cc1NC(=O)c1csc2ccccc12 [I-618] | 100 to 500 | 1000 to 5000 | 
4 | Cc1ccccc1Nc1ncc(C(=O)N[C@H]2COc3ccccc3C2)cc1NC(=O)c1csc2ccccc12 [I-619] | 100 to 500 | 36000 to 100000 | 
5 | Cc1ccccc1Nc1ncc(C(=O)NCC2CCCOC2)cc1NC(=O)c1csc2ccccc12 (stereo not shown) [I-621] | 100 to 500 | 10000 to 36000 | 
6 | Cc1ccccc1Nc1ncc(C(=O)N[C@H]2CCOC2)cc1NC(=O)c1csc2ccccc12 [I-622] | 100 to 500 | 1000 to 5000 | 
7 | Cc1ccccc1Nc1ncc(C(=O)Nc2cnn(C)c2)cc1NC(=O)c1csc2ccccc12 [I-624] | 100 to 500 | < 1000 | 
8 | Cc1ccn2c(CNC(=O)c3cnc(Nc4ccccc4C)c(NC(=O)c4csc5ccccc45)c3)nnc2c1 [I-625] | 100 to 500 | 10000 to 36000 | 
9 | Cc1ccccc1Nc1ncc(C(=O)N[C@@H]2CC[C@@H](O)C2)cc1NC(=O)c1csc2ccccc12 [I-626] | 100 to 500 | 1000 to 5000 | 
10 | Cc1ccccc1Nc1ncc(C(=O)N2CCn3nccc32)cc1NC(=O)c1csc2ccccc12 [I-627] | 1000 to 10000 | 10000 to 36000 | 
11 | Cc1ccccc1Nc1cccnc1NC(=O)c1csc2ccccc12 [I-635] | 100 to 500 | 36000 to 100000 | 
12 | CNC(=O)c1cnc(Nc2ccccc2C)c(NC(=O)Cc2cnc3ccccn23)c1 [I-652] | 100 to 500 | 10000 to 36000 | 
13 | CNC(=O)c1cnc(N)c(NC(=O)c2csc3ccccc23)c1 [I-676] | 500 to 1000 | 10000 to 36000 | 
14 | CNC(=O)c1cnc(Nc2ccccc2C)c(NC(=O)c2cc(F)c(F)c(C(F)(F)F)c2)c1 [I-677] | 1000 to 10000 | 10000 to 36000 | 
15 | CNC(=O)c1cnc(Nc2cccc3ccn(C)c23)c(NC(=O)c2csc3ccccc23)c1 [I-680] | 1000 to 10000 | 10000 to 36000 | 
16 | Cc1ccccc1Nc1ncc(C(=O)N[C@H]2C[C@H](C(=O)O)C2)cc1NC(=O)c1csc2ccccc12 [I-685] | 500 to 1000 | 10000 to 36000 | 
17 | CC(NC(=O)c1cnc(N)c(NC(=O)c2csc3ccccc23)c1)c1nnc2ccccn12 (stereo not shown) [I-691] | 100 to 500 | 5000 to 10000 | 
18 | CNC(=O)[C@H]1C[C@@H](NC(=O)c2cnc(Nc3ccccc3C)c(NC(=O)c3csc4ccccc34)c2)C1 [I-692] | 100 to 500 | 10000 to 36000 | 
19 | Cc1ccccc1Nc1ncc(C(=O)NCc2cccnc2)cc1NC(=O)c1cc(F)cc(C(F)(F)F)c1 [I-700] | 100 to 500 | 10000 to 36000 | 
20 | CNC(=O)c1cnc(NC2CCOc3ccc(F)cc32)c(NC(=O)c2csc3ccccc23)c1 (stereo not shown) [I-745] | 100 to 500 | 5000 to 10000 | 
21 | Cc1ccccc1Nc1ncc(C(=O)NCC2(C#N)CC2)cc1NC(=O)c1cc(F)cc(C(F)(F)F)c1 [I-750] | 100 to 500 | 5000 to 10000 | 
22 | CNC(=O)c1cnc(Nc2ccccc2C)c(NC(=O)c2cc(C)nc(C(F)(F)F)c2)c1 [I-765] | 100 to 500 | 1000 to 5000 | 
23 | CNC(=O)c1cnc(Nn2nccc2C(F)(F)F)c(NC(=O)c2csc3ccccc23)c1 [I-772] | ≤ 100 | 1000 to 5000 | 
24 | CNC(=O)c1cc(F)c(Nc2ccccc2C)c(NC(=O)c2csc3ccccc23)c1 [I-773] | ≤ 100 | < 1000 | 
25 | Cc1ccccc1Nc1c(F)cc(C(=O)NC2CS(=O)(=O)C2)cc1NC(=O)c1csc2ccccc12 [I-774] | ≤ 100 | 10000 to 36000 | 
26 | CC(C)(O)c1cnc(Nc2cc(F)ccc2Cl)c(NC(=O)c2nsc3ccccc23)c1 [I-783] | 100 to 500 | 5000 to 10000 | 
27 | CNC(=O)c1ccc(Nc2cc(F)ccc2Cl)c(NC(=O)c2cc(F)cc(C(F)(F)F)c2)n1 [I-802] |  | 1000 to 5000 | 100 to 500
28 | CNC(=O)c1cnc(Nc2cc(CO)ccc2Cl)c(NC(=O)c2cc(F)cc(C(F)(F)F)c2)c1 [I-809] |  | 1000 to 5000 | 100 to 500
29 | Cc1ccccc1Nc1nc2ccccc2cc1NC(=O)N1CC(O)c2ccccc21 (stereo not shown) [I-828, 3-hydroxy-N-(2-(o-tolylamino)quinolin-3-yl)indoline-1-carboxamide] |  | 5000 to 10000 | 500 to 1000
